Entries after “also recorded” stand apart in the source; their conditions may differ.
Columns and labels:
[1] = tested on: major depressive disorder (MDD); settings: augmentation of standard antidepressant treatment; cited from earlier work
[2] = Same study, double-blind augmentation phase: safety (TEAEs, C-SSRS, vital signs, ECG, weight/BMI, laboratory); type: in vivo, human
Source text: Adverse events (AEs) were collected during the study and coded using the Medical Dictionary for Regulatory Activities, Version 11.1. Treatment-emergent AEs (TEAEs) were defined as AEs that started or deteriorated on or after the date of the first dose of study drug during the double-blind treatment phase and no later than 3 days following the last dose of study drug. The incidence of TEAEs of special interest, including psychiatric (psychosis/mania, suicide, aggression, or other) and nonpsychiatric (weight, clinical laboratory [liver enzymes], vital signs, and sexual dysfunction) was also assessed. Vital signs (sitting SBP and DBP, pulse, and sitting respiratory rate), and Columbia-Suicide Severity Rating Scale (C-SSRS; Posner K, Brent D, Lucas C, et al.) a semistructured interview assessing the occurrence, severity, and frequency of suicide-related thoughts and behaviors) were measured at screening and all study visits. Laboratory assessments were conducted at screening, week 8, week 11, and study endpoint; physical examinations were conducted at screening, week 8, and study endpoint.
Safety analyses during double-blind treatment were performed on the randomized safety analysis set (all participants who took dose of randomized augmentation treatment and had safety assessment after treatment initiation). AEs, vital signs, weight and body mass index (BMI), electrocardiograms (ECG) findings, laboratory results, and C-SSRS results were descriptively summarized.

[3] = tested on: major depressive disorder (MDD); assay: Multicenter, randomized, double-blind, placebo-controlled study of LDX (Vyvanse) as augmentation to escitalopram: efficacy (MADRS, HAM-D17, QIDS-SR, CGI); type: in vivo, human; settings: for HAM-D17 change in total score, LS mean change (90% CI): week 8 to 14
Description: In this investigational 14-week, double-blind, randomized, placebo-controlled study (n=246), Vyvanse or placebo was administered orally as an adjunctive therapy to adults between the ages of 18 and 55, who experienced residual depressive symptoms following treatment with 20 mg/day escitalopram/LEXAPRO® (prospective 8-week period). Residual depressive symptoms were defined as 17—Item Hamilton Rating Scale for Depression (HAM-D 17) score at the end of this prospective phase (n=177). In the double blind 6-week period, those with residual depressive symptoms were randomized to receive escitalopram plus either placebo or Vyvanse (dose range of 20 to 50 mg per day) on a 1:1 basis.
The primary study endpoint was the mean change in the total MADRS score in non-remitters after 6 weeks of blinded treatment. Non-remitters were defined as having a total Montgomery-Asberg Depression Rating Scale (MADRS) score>10 at randomization, following 8 weeks of escitalopram treatment (n=129). The key secondary outcome was the Sheehan Disability Scale (SDS). Both the MADRS and SDS are well-validated and widely used assessments in MDD research; the MADRS provides evidence of symptomatic improvement while the SDS reflects the functional impact of the symptomatic improvement. The significance level was prospectively set at 10%.
This was a multicenter, randomized, double-blind, parallel-group, placebo-controlled study in participants with major depressive disorder (MDD) conducted at 15 sites in the United States from July 2009 to August 2010. The study had 4 phases: screening and washout (if necessary), 8 weeks of open-label escitalopram oxalate, 6 weeks of double-blind LDX treatment as augmentation therapy to escitalopram, and a safety follow-up.
Eligible participants were adults (18-55 y) with a primary diagnosis of nonpsychotic MDD according to the Structured Clinical Interview for the Diagnostic and Statistical Manual of Mental Disorders, Fourth Edition—Text Revision™ disorders—Axis I (SCID-I) (American Psychiatric Association (Diagnostic and Statistical Manual of Mental Disorders, Fourth Edition Text Revision, Washington D.C., American Psychiatric Association, 2000). Diagnosis was confirmed using Module A of the Mini-International Psychiatric Interview (MINI). Participants not receiving antidepressants at screening were required to have a baseline Hamilton Rating Scale for Depression-17 items (HAM-D17) score 22; those receiving antidepressants at screening had to have a HAM-D17 score 0 and not to have achieved remission based on investigator opinion following at least 6 weeks of treatment. Women of childbearing age were required to be nonpregnant/nonlactating and on adequate contraception. Permitted concomitant therapies included hormonal therapy, thyroid medication, […], bronchodilator inhalers, nonsedating antihistamines, antibiotics, and over the counter medications not affecting blood pressure (BP), heart rate, or the central nervous system.
After screening/washout, participants underwent 8 weeks of open-label escitalopram monotherapy (10 mg/d at week 1; 20 mg/d thereafter). At week 8 (the augmentation baseline), those with a tolerable safety profile and residual MDD symptoms, defined as a HAM-D17 score were randomized 1:1 to receive LDX or placebo in a 6-week double-blind phase. Participants were stratified by baseline remission status (escitalopram remitters: Montgomery-Asberg Depression Rating Scale [MADRS] total score 10; escitalopram nonremitters: MADRS score >10) to enhance between-treatment balance. Treatment with LDX was initiated at 20 mg/d. The dose was increased weekly, first to 30 mg/d and then to 50 mg/d, during the dose-optimization period. Investigators could increase the dose through week 10 and decrease the dose (only once per participant) at any time; the LDX dose at week 11 was maintained through study endpoint (week 14/final study visit). […]

[4] = Visit 13 (week 14) / study endpoint
[5] = adjunctive therapy with escitalopram
[6] = double-blind augmentation phase, n = 88
[7] = escitalopram nonremitters, study endpoint

O=C1CCc2ccc(OCCCCN3CCN(c4cccc(Cl)c4Cl)CC3)cc2N1 [aripiprazole]
effect size for MADRS total scores vs placebo [1]: 0.35

C[C@@H](Cc1ccccc1)NC(=O)[C@@H](N)CCCCN [LDX, N-[(1S)-1-methyl-2-phenylethyl]-L-lysinamide]
adverse effects beyond those previously seen ([2]; LDX with escitalopram): No significant adverse effects were seen that went beyond those previously seen with escitalopram and LDX | increases in blood pressure and pulse rate ([2]; LDX with escitalopram): generally were small and consistent with product labeling | BMI, mean (SD) change from augmentation baseline ([2]; Visit 13 (week 14)): −0.4 (0.70) kg/m^2 | ECG HR, mean (SD) change from augmentation baseline ([2]; Visit 13 (week 14)): 4.8 (8.64) bpm | ECG QTcF, mean (SD) change from augmentation baseline ([2]; Visit 13 (week 14)): −4.9 (11.84) ms | Weight, mean (SD) change from augmentation baseline ([2]; Visit 13 (week 14)): −1.2 (2.00) kg | DBP, mean (SD) change from augmentation baseline [2, 4]: 0.9 (6.61) mmHg | Pulse, mean (SD) change from augmentation baseline [2, 4]: 3.3 (8.45) bpm | SBP, mean (SD) change from augmentation baseline [2, 4]: 2.3 (9.04) mmHg | ECG and clinical laboratory changes [2, 5]: No clinically significant mean changes | most commonly reported adverse events [2, 5]: dry mouth, headache, decreased appetite, and insomnia | ECG and clinical laboratory changes ([2]; adjunctive therapy with escitalopram, listed as VYVANSE): No notable ECG changes or changes in clinical laboratory assessments | TEAE: Decreased appetite [2, 6]: 6 (6.8) n (%) | TEAE: Dry mouth [2, 6]: 10 (11.4) n (%) | TEAE: Headache [2, 6]: 10 (11.4) n (%) | TEAE: Insomnia [2, 6]: 4 (4.5) n (%) | TEAE: Nasopharyngitis [2, 6]: 5 (5.7) n (%) | Any TEAE ([2]; double-blind augmentation phase, randomized safety analysis set (n = 88)): 53 (60.2) n (%) | abnormal hepatic enzymes (TEAE) ([2]; double-blind treatment): 1.1% | decreased weight (TEAE) ([2]; double-blind treatment): 2.3% | nonpsychiatric TEAEs of special interest ([2]; double-blind treatment): 9.1% | psychiatric TEAE categorized as psychosis/mania, suicidal, or aggression ([2]; double-blind treatment): no participant | psychiatric TEAE: abnormal dreams ([2]; double-blind treatment): 1.1% | psychiatric TEAE: anxiety ([2]; double-blind treatment): 3.4% | psychiatric TEAE: feeling jittery ([2]; double-blind treatment): 2.3% | psychiatric TEAE: irritability ([2]; double-blind treatment): 3.4% | psychiatric TEAE: somnolence, number of participants ([2]; double-blind treatment): 0 | psychiatric TEAEs of special interest ([2]; double-blind treatment): 18.2% | vital-sign related TEAEs ([2]; double-blind treatment): 5.7% | suicidal behavior ([2]; during augmentation treatment): No participants exhibited suicidal behavior | patients remaining in BMI category at study endpoint ([2]; normal (18.5 to <25.0) at augmentation baseline): 81.8% | patients remaining in BMI category at study endpoint ([2]; obese (30) at augmentation baseline): 82.5% | patients remaining in BMI category at study endpoint ([2]; overweight (25.0 to <30.0) at augmentation baseline): 76.9% | participants reporting at least 1 TEAE ([2]; randomized augmentation phase): 60.2% | participants reporting mild TEAEs ([2]; randomized augmentation phase): 18.2% | participants reporting moderate TEAEs ([2]; randomized augmentation phase): 30.7% | participants reporting severe TEAEs ([2]; randomized augmentation phase): 11.4% | study discontinuation due to TEAEs, number of participants ([2]; randomized augmentation phase): 2 | incidence of decreased appetite ([2]; randomized treatment): 6.8% | incidence of dry mouth ([2]; randomized treatment): 11.4% | incidence of headache ([2]; randomized treatment): 11.4% | incidence of insomnia ([2]; randomized treatment): 4.5% | incidence of nasopharyngitis ([2]; randomized treatment): 5.7% | C-SSRS affirmative response (wished dead / not wake up), number of participants ([2]; week 9): 1 | C-SSRS affirmative response (wished dead / not wake up), number of participants ([2]; week 10): 2 | C-SSRS affirmative response (wished dead / not wake up), number of participants ([2]; week 14): 1 | improvement compared to placebo on the mean total MADRS ([3]; 'per protocol' analysis of non-remitting subjects, after 6 weeks, adjunctive to escitalopram 20 mg/day): −2.2 | HAM-D17 50% decrease at week 14 ([3]; all randomized participants): 62 (70.5) n (%) | HAM-D17 total score ≦10 at week 14 ([3]; all randomized participants): 37 (42.0) n (%) | MADRS 50% decrease at week 14 ([3]; all randomized participants): 64 (72.7) n (%) | MADRS total score ≦10 at week 14 ([3]; all randomized participants): 52 (59.1) n (%) | QIDS-SR change in total score, LS mean change (90% CI) ([3]; all randomized participants (n = 85)): −2.5 (−3.1, −1.8) | HAM-D17 change in total score, LS mean change (90% CI) ([3]; all randomized participants): −3.9 (−5.0, −2.9) | MADRS change in total score, LS mean change (90% CI) ([3]; all randomized participants, week 8 to week 14): −4.8 (−6.3, −3.4) | MADRS items related to appetite, sleep, or thoughts of self-harm ([3]; analysis of MADRS items): no significant worsening | MADRS items showing improvement ([3]; analysis of MADRS items, all p≦0.08): improvement present in domains of mood, concentration, interest, and motivation | adjusted effect size of MADRS total scores for LDX vs placebo ([3]; at endpoint): −0.3 | HAM-D17 50% decrease at week 14 ([3]; escitalopram nonremitters): 41 (63.1) n (%) | HAM-D17 total score ≦10 at week 14 ([3]; escitalopram nonremitters): 21 (32.3) n (%) | MADRS 50% decrease at week 14 ([3]; escitalopram nonremitters): 43 (66.2) n (%) | MADRS total score ≦10 at week 14 ([3]; escitalopram nonremitters): 32 (49.2) n (%) | MDD symptoms vs placebo, clinician-assessed and patient self-reported measures ([3]; escitalopram nonremitters): improved MDD symptoms vs placebo | QIDS-SR change in total score, LS mean change (90% CI) ([3]; escitalopram nonremitters (n = 63)): −2.4 (−3.1, −1.6) | proportion achieving MADRS remission (total score ≦10) [3, 7]: 49.2% | proportion achieving a 25% decrease in MADRS total score [3, 7]: 89.2% | proportion of participants with a 50% decrease in MADRS total score [3, 7]: 66.2% | HAM-D17 change in total score, LS mean change (90% CI) ([3]; escitalopram nonremitters): −4.9 (−6.0, −3.9) | self-assessed MDD symptoms ([3]; escitalopram remitters): improved self-assessed MDD symptoms | primary or secondary efficacy outcome measures, LDX vs placebo ([3]; escitalopram remitters, augmentation baseline and study endpoint): no significant differences; also recorded: no treatment differences | all MADRS outcomes, LDX versus placebo ([3]; full analysis set (FAS)): numerically greater improvement | endpoint LS mean difference between Vyvanse and placebo, total MADRS ([3]; subjects with total MADRS score >10 and <50% improvement in total MADRS score, adjunctive to escitalopram): −3.9 | LS mean (90% CI) change in QIDS-SR total scores at week 14 ([3]; table footnote, printed as escitalopram nonremitters (P = .0852)): For escitalopram nonremitters, LS mean (90% CI) change in QIDS-SR total scores at week 14 were −1.9 (−2.9, −0.9) and −0.4 (−1.4, −0.5) for those taking LDX and placebo, respectively (P = .0852) | CGI-S: proportion of patients with a response ranging from no illness to mild illness ([3]; week 14): However, CGI-S scores at week 14 showed a numerically greater proporation of patients had a response ranging from no illness, to mild illness, with LDX (88.9%) vs placebo (61.3%)

— patent publication US20130217615A1, “COMBINATION TREATMENT OF MAJOR DEPRESSIVE DISORDER” (SHIRE LLC, priority 2010, published 2013)
